# Reference: patent US10040804B2, “Compounds targeting proteins, compositions, methods, and uses thereof” (BioTheryX, Inc., priority 2016, dated 2018)
# Tests used:
# [1] = test system: IL-6; experiment: IL-6 expression in LPS stimulated PBMCs (Meso Scale); type: cell-based, human; details: Homo sapiens, PBMC, LPS-stimulated PBMCs; for inhibition at 1 µM: compound concentration 1 μM
# How it was run: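 Thawed human PBMCs at 200,000 cells/well in RPMI-1640/10% FBS were pretreated with compound or DMSO for 1 h, then stimulated with 100 ng/mL LPS for 18–24 h. Supernatant IL-6 was measured by Meso Scale assay and expressed as % of LPS-induced activity.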
# [2] = molecular target: T1, GSPT1 (Homo sapiens, UniProt P15170); experiment: GSPT1 protein levels by Western Blot analysis; type: cell-based; details: DMSO = 100.00; for remaining activity at 0.1 µM: 100 nM compound concentration; for remaining activity at 1 µM: 1 μM compound concentration
# T1 construct: Whole cell extracts were prepared using RIPA buffer according to manufacturer's protocol (Pierce); endogenous in cells
# T1 sequence (P15170 whole entry): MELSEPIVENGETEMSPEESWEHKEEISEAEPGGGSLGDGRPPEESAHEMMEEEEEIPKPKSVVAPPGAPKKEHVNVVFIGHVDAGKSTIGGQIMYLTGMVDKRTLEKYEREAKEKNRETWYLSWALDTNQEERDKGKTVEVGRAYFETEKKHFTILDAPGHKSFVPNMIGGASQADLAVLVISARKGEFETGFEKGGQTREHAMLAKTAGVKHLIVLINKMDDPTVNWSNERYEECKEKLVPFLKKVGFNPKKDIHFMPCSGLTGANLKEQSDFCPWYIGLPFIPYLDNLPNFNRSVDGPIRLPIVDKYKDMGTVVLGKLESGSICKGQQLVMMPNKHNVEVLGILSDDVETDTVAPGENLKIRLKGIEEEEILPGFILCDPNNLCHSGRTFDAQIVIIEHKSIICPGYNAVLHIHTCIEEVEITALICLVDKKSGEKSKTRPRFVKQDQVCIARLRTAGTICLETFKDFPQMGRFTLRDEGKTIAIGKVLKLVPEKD
# T1 sequence (Q96SW2 whole entry, further chain): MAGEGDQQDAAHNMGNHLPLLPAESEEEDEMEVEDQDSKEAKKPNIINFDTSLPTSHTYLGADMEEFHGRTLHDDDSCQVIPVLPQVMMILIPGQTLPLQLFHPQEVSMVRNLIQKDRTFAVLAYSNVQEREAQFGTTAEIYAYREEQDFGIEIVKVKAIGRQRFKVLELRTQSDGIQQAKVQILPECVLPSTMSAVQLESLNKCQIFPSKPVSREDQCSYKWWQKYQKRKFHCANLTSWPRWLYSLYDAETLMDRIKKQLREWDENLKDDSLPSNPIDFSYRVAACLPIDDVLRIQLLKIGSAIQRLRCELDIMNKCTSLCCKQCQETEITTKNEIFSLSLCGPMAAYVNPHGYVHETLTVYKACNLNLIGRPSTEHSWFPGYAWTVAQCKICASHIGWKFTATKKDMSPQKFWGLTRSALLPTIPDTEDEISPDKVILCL
# T1 sequence (Q16531 whole entry partner): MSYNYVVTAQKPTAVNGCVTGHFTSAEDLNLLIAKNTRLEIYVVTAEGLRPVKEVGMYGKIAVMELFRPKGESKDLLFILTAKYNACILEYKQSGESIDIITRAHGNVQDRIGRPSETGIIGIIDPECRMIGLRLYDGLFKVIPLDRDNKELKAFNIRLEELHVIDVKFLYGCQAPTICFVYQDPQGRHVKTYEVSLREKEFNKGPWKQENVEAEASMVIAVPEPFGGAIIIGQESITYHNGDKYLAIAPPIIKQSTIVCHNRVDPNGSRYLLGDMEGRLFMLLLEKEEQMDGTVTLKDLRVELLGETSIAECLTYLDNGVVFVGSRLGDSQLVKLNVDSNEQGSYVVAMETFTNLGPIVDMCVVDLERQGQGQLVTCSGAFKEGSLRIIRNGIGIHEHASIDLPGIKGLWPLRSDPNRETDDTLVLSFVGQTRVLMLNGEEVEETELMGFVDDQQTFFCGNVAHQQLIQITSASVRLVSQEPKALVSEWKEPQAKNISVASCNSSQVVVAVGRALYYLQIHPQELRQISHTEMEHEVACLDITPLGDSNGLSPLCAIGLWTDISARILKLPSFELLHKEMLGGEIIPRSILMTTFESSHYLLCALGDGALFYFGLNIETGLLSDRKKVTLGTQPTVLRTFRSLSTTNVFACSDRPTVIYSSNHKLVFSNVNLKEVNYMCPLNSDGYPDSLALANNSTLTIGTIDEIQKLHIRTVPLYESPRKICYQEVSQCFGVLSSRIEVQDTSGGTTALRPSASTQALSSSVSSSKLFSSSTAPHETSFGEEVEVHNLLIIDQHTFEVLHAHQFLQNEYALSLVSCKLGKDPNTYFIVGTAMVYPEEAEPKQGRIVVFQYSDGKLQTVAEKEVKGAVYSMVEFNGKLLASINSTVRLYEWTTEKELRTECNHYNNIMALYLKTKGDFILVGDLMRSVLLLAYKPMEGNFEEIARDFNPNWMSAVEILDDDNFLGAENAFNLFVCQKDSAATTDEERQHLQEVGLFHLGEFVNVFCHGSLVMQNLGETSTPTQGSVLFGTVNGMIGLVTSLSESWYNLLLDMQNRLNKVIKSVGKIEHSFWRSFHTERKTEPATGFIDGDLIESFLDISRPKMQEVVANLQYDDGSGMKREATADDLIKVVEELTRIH
# How it was run: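 Molm-13 AML cells in RPMI 1640 with 10% FBS, about 10^6 cells/mL, treated with compound or DMSO for 6-8 h. RIPA whole-cell lysates resolved by SDS-PAGE, blotted and probed for GSPT1 with β-actin reference; IRDye secondary antibodies quantified by LI-COR Odyssey infrared imaging.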
# [3] = test system: MDA-MB-231 cells; experiment: MDA-MB-231 cell viability (CellTiter-Glo); type: cell-based; details: Homo sapiens, 72 h, 3 days, DMSO = 100.00; for viability at 1 µM: 1 μM compound concentration; for viability at 10 µM: 10 μM compound concentration
# How it was run: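 Cells in DMEM with 10% FBS, seeded at 10,000 per well, exposed to compound (0.1% DMSO control) for 3 days at 37° C, 5% CO2. Viability read by CellTiter-Glo luminescence after 10 min shaking.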
# [4] = test system: IL-1β; experiment: IL-1β expression in LPS stimulated PBMCs (Meso Scale); type: cell-based, human; details: Homo sapiens, PBMC; for inhibition at 1 µM: compound concentration 1 μM
# How it was run: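 Human PBMCs (200,000 cells/well in RPMI-1640/10% FBS) were pretreated with compound for 1 h, then stimulated with 100 ng/mL LPS for 18-24 h. IL-1β in supernatant was measured by Meso Scale assay. Activity is expressed as percentage of LPS-induced level, with DMSO-treated wells as negative control.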
# [5] = test system: TNF-α; experiment: TNF-α expression in LPS stimulated PBMCs (Meso Scale); type: cell-based, human; details: Homo sapiens, PBMC; for inhibition at 1 µM: compound concentration 1 μM
# How it was run: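 Thawed primary human PBMCs, 200,000 cells/well in RPMI-1640/10% FBS, pretreated with compound 1 h, then stimulated with 100 ng/mL LPS for 18-24 h. Supernatant TNF-α measured by Meso Scale assay; activity expressed as percentage of LPS-induced level, DMSO as negative control.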
# [6] = test system: IL-2; experiment: anti-CD3-induced IL-2 secretion in PBMCs; type: cell-based; details: Homo sapiens, PBMC, anti-CD3 stimulated PBMCs, 24 h, DMSO = 1.0, read-out: Fold Change IL-2; for fold induction at 1 µM: compound concentration 1 μM
# How it was run: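 PBMCs stimulated on plates coated with 1 ug/mL anti-CD3 (OKT3), with compound or DMSO, 24 h. Supernatant IL-2 measured by Mesoscale; activity expressed as fold difference from DMSO-stimulated control.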
# [7] = test system: H1048 cells; experiment: H1048 cell viability (CellTiter-Glo); type: cell-based; details: Homo sapiens, NCI-H1048, 72 h, H1048, 3 days, DMSO = 100.00; for viability at 1 µM: 1 μM compound concentration; for viability at 10 µM: 10 μM compound concentration
# How it was run: (§1)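 Molm-13 (RPMI-1640, 10% FBS) and H1048 (DMEM:F12, 5% FBS with supplements) plated at 20,000 cells/well, treated with compound or 0.1% DMSO for 3 days at 37° C., 5% CO2. Viability read by CellTiter-Glo luminescence after 10 min.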
# [8] = test system: Molm-13 cells; experiment: Molm-13 cell viability (CellTiter-Glo); type: cell-based; details: Homo sapiens, MOLM-13, read-out: % Inhibition (MOLM-13 Cell Viability); for cytotoxicity at 10 µM: compound concentration 10 μM
# How it was run: as §1
SMILES,inhibition at 0.1 µM ([1]; compound concentration 0.1 μM) [%],remaining activity at 0.1 µM [2] [%],remaining activity at 1 µM [2] [%],viability at 1 µM [3] [%],viability at 10 µM [3] [%],inhibition at 0.1 µM ([4]; compound concentration 0.1 μM) [%],inhibition at 0.1 µM ([5]; compound concentration 0.1 μM) [%],fold induction at 0.1 µM ([6]; compound concentration 0.1 μM),viability at 1 µM [7] [%],viability at 10 µM [7] [%],cytotoxicity at 0.003 µM ([8]; compound concentration 0.003 μM) [%],inhibition at 1 µM [1] [%],inhibition at 1 µM [4] [%],inhibition at 1 µM [5] [%],fold induction at 1 µM [6],cytotoxicity at 10 µM [8] [%],cytotoxicity at 0.8 µM ([8]; compound concentration 0.8 μM) [%],cytotoxicity at 0.02 µM ([8]; compound concentration 0.02 μM) [%],cytotoxicity at 0.1 µM ([8]; compound concentration 0.1 μM) [%]
"Cc1ccc(CNC(=O)NCc2scc3c2CN(C2CCC(=O)NC2=O)C3=O)cc1Cl (centres unmarked) [Compound 33, 1-(3-Chloro-4-methylbenzyl)-3-((5-(2,6-dioxopiperidin-3-yl)-4-oxo-5,6-dihydro-4H-thieno[3,4-c]pyrrol-1-yl)methyl)urea]",99,5.9,5.5,21.7,19.8,95,95,0.3,8.76,8.21,50,–,–,–,–,–,–,–,–
"Cc1ccc(NC(=O)NCc2scc3c2CN([C@H]2CCCC(=O)NC2=O)C3=O)cn1 [Compound 37, (S)-1-((5-(2,7-Dioxoazepan-3-yl)-4-oxo-5,6-dihydro-4H-thieno[3,4-c]pyrrol-1-yl)methyl)-3-(6-methylpyridin-3-yl)urea]",–,124,154,106,97.7,–,–,–,55,10.5,–,3,4,6,1.1,51,–,–,–
"Cc1ccc(NC(=O)NCc2scc3c2CN([C@H]2CCCC(=O)NC2=O)C3=O)cc1C(C)C [Compound 42, (S)-1-((5-(2,7-Dioxoazepan-3-yl)-4-oxo-5,6-dihydro-4H-thieno[3,4-c]pyrrol-1-yl)methyl)-3-(3-isopropyl-4-methylphenyl)urea]",–,50.7,8.44,57.6,30.5,–,–,–,8.7,8.68,–,97,91,90,0.4,–,50,–,–
"Cc1ccc(CNC(=O)NCc2cc3c(s2)C(=O)N([C@H]2CCCC(=O)NC2=O)C3)cc1Cl [Compound 39, (S)-1-(3-Chloro-4-methylbenzyl)-3-((5-(2,7-dioxoazepan-3-yl)-6-oxo-5,6-dihydro-4H-thieno[2,3-c]pyrrol-2-yl)methyl)urea]",–,87.4,96,105,101,–,–,–,58.3,19.9,–,0,24,18,1.4,9,–,–,–
"Cc1ccc(CC(=O)NCc2scc3c2CN([C@H]2CCCC(=O)NC2=O)C3=O)cc1Cl [Compound 31, (S)-2-(3-Chloro-4-methylphenyl)-N-((5-(2,7-dioxoazepan-3-yl)-4-oxo-5,6-dihydro-4H-thieno[3,4-c]pyrrol-1-yl)methyl)acetamide]",–,131,108,103,107,–,–,–,84.3,26.8,–,40,76,80,1.7,12,–,–,–
"Cc1cc(C)c(NC(=O)NCc2scc3c2CN([C@H]2CCCC(=O)NC2=O)C3=O)cc1Cl [Compound 36, (S)-1-(5-Chloro-2,4-dimethylphenyl)-3-((5-(2,7-dioxoazepan-3-yl)-4-oxo-5,6-dihydro-4H-thieno[3,4-c]pyrrol-1-yl)methyl)urea]",–,92.9,32.6,101,53.4,–,–,–,10.6,7.51,–,38,40,33,0.8,100,–,–,–
"Cc1c(Cl)cc(NC(=O)NCc2scc3c2CN([C@H]2CCCC(=O)NC2=O)C3=O)cc1C(C)C [Compound 43, (S)-1-(3-Chloro-5-isopropyl-4-methylphenyl)-3-((5-(2,7-dioxoazepan-3-yl)-4-oxo-5,6-dihydro-4H-thieno[3,4-c]pyrrol-1-yl)methyl)urea]",–,56,14.2,55.2,23.7,–,–,–,7.97,7.63,–,88,73,77,0.5,100,–,–,–
"Cc1ccc(CNC(=O)NCc2scc3c2CN([C@H]2CCCC(=O)NC2=O)C3=O)cc1Cl [Compound 34, (S)-1-(3-Chloro-4-methylbenzyl)-3-((5-(2,7-dioxoazepan-3-yl)-4-oxo-5,6-dihydro-4H-thieno[3,4-c]pyrrol-1-yl)methyl)urea]",–,84.9,37.5,102,44.4,–,–,–,12.9,8.34,–,39,70,69,1.6,99,–,–,–
"Cc1ccc(NC(=O)NCc2cc3c(s2)C(=O)N(C2CCC(=O)NC2=O)C3)cc1Cl (centres unmarked) [Compound 40, 1-(3-Chloro-4-methylphenyl)-3-((5-(2,6-dioxopiperidin-3-yl)-6-oxo-5,6-dihydro-4H-thieno[2,3-c]pyrrol-2-yl)methyl)urea]",–,46,40,57.7,50,–,–,–,12.9,13.6,–,17,37,34,0.3,–,–,50,–
"Cc1ccc(CNC(=O)NCc2cc3c(s2)C(=O)N(C2CCC(=O)NC2=O)C3)cc1Cl (centres unmarked) [Compound 44, 1-(3-Chloro-4-methylbenzyl)-3-((5-(2,6-dioxopiperidin-3-yl)-6-oxo-5,6-dihydro-4H-thieno[2,3-c]pyrrol-2-yl)methyl)urea]",–,57.3,53.6,64.6,56.5,–,–,–,13.8,14.3,–,6,45,41,1,–,–,–,50
